System: A549 human lung adenocarcinoma
Test: Antiproliferative MTT assay, A549 human lung adenocarcinoma cell line
Format: cell-based
Details: A549 adherent cells, 72-h exposure, cytotoxicity
Description: Raspailamide A (I) and B (II) were analyzed as to their effect on the proliferation of A549 human lung adenocarcinoma and P388 murine leukemia cell lines. P388 cells were obtained from Dr. R. Camalier, National Cancer Institute, Bethesda, Md., and A549 cells were obtained from American Type Culture Collection, Rockville, Md.
All cell lines are maintained in Roswell Park Memorial Institute (RPMI) medium 1640 supplemented with 100 U/mL penicillin 100 μg/ml streptomycin, 60 μg/ml L-glutamine, 18 mM HEPES, 0.05 mg/mL gentamycin and 10% fetal bovine serum. Cell lines are cultured in plastic tissue culture flasks and kept in an incubator at 37° C. in humidified air containing 5% CO2. […]
A volume of 75 μl of warm growth media containing 5 mg/ml MTT is added to each well, cultures returned to the incubator, and left undisturbed for 3 hours. To spectrophotometrically quantitate formation of reduced formazan, plates are centrifuged (900×g, 5 minutes), culture fluids removed by aspiration, and 200 μl of acidified isopropanol (2 ml concentrated HCl/iter isopropanol) added per well. The absorbance of the resulting solutions is measured at 570 nm with a plate reader (Spectra II (Tecan Laboratories). […]
The two standard drug controls (indicated above) are included in each assay to monitor the drug sensitivity of each of the cell lines and IC50 values are determined for each drug-cell combination.

Row | SMILES | IC50
1 | C=C/C=C/C(C)=C/C(C)C1CC(OC)CC(CC2OC(CC(C)/C=C/C(C)=C/CC(CC(O)CNC(=O)C(=C)OC)OC(N)=O)C(C)(O)CC2C)O1 (centres unmarked) [Raspailamide (II), Raspailamide B] | 0.018 ng/mL
2 | C=C(OC)C(=O)NCC(O)CC(C/C=C(C)/C=C/C(C)CC1OC(CC2CC(OC)CC(C(C)/C=C(C)/C=C/C=C/C)O2)C(C)CC1(C)O)OC(N)=O (centres unmarked) [Raspailamide A (I), Raspailamide A] | 0.046 ng/mL
